Reference: the supplement of paper PMC8149375

What was measured:
Conditions in all cases: treatment: drug alone; 5 days
TK-10 [1] = assay: AUC of dose-response viability curve, drug alone (arbitrary (AUC of normalised viability)); higher = less growth inhibition
Method: (§1)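 Primary HTS: 8 RCC cell lines treated with 8 doses (up to 10 uM) of each library drug alone for 5 days; viability read by CellTiter-Glo and normalised to DMSO. GI50 was fitted with XLfit (4-parameter), AUC is the area under the dose-response curve, and minimum viability is the lowest fraction of DMSO viability across doses.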

786-O [2] = assay: as above
Method: as §1

CAKI-1 [3] = assay: as above
Method: as §1

ACHN [4] = assay: as above
Method: as §1

769-P [5] = assay: as above
Method: as §1

A498 [6] = assay: as above
Method: as §1

SN12C [7] = assay: as above
Method: as §1

UO-31 [8] = assay: as above
Method: as §1

TK-10 [9] = assay: GI50, drug alone; higher = less potent
Method: as §1

786-O [10] = assay: GI50, drug alone; higher = less potent
Method: as §1

CAKI-1 [11] = assay: GI50, drug alone; higher = less potent
Method: as §1

ACHN [12] = assay: GI50, drug alone; higher = less potent
Method: as §1

769-P [13] = assay: GI50, drug alone; higher = less potent
Method: as §1

A498 [14] = assay: GI50, drug alone; higher = less potent
Method: as §1

SN12C [15] = assay: GI50, drug alone; higher = less potent
Method: as §1

UO-31 [16] = assay: GI50, drug alone; higher = less potent
Method: as §1

TK-10 [17] = assay: minimum viability across doses, drug alone, relative to DMSO (fraction); higher = less growth inhibition
Method: as §1

786-O [18] = assay: as above
Method: as §1

CAKI-1 [19] = assay: as above
Method: as §1

ACHN [20] = assay: as above
Method: as §1

769-P [21] = assay: as above
Method: as §1

A498 [22] = assay: as above
Method: as §1

SN12C [23] = assay: as above
Method: as §1

UO-31 [24] = assay: as above
Method: as §1

Row | SMILES | GI50, drug alone (786-O [10]) | GI50, drug alone (ACHN [12]) | AUC of dose-response viability curve (TK-10 [1]) | AUC of dose-response viability curve (786-O [2]) | AUC of dose-response viability curve (CAKI-1 [3]) | AUC of dose-response viability curve (ACHN [4]) | AUC of dose-response viability curve (769-P [5]) | AUC of dose-response viability curve (A498 [6]) | AUC of dose-response viability curve (SN12C [7]) | AUC of dose-response viability curve (UO-31 [8]) | GI50, drug alone (TK-10 [9]) | GI50, drug alone (CAKI-1 [11]) | GI50, drug alone (769-P [13]) | GI50, drug alone (A498 [14]) | GI50, drug alone (SN12C [15]) | GI50, drug alone (UO-31 [16]) | minimum viability across doses (TK-10 [17]) | minimum viability across doses (786-O [18]) | minimum viability across doses (CAKI-1 [19]) | minimum viability across doses (ACHN [20]) | minimum viability across doses (769-P [21]) | minimum viability across doses (A498 [22]) | minimum viability across doses (SN12C [23]) | minimum viability across doses (UO-31 [24])
1 | CC(=O)NCC(=O)N1[C@H]2CC[C@H]1c1cc(Nc3ncc(C(F)(F)F)c(NC4CCC4)n3)ccc12 | 0.0151 µM | 0.0806 µM | 2.18 | 0.907 | 1.81 | 1.5 | 2.09 | 3.32 | 2.12 | 2.54 | 0.725 µM | 0.173 µM | 0.375 µM | 4.77 µM | 0.557 µM | 2.64 µM | 0.128 | 0.0093 | 0.123 | 0.0112 | 0.0288 | 0.0256 | 0.0115 | 0.0196
2 | O=C(NOCC(O)CO)c1cc(Br)c(F)c(F)c1Nc1ccc(I)cc1F (stereo not given) | 0.448 µM | 1.99 µM | 2.4 | 1.94 | 2.32 | 2.42 | 2.62 | 3.58 | 2.83 | 3.29 | 2.84 µM | 1.25 µM | 4.98 µM | > 10 µM | > 10 µM | > 10 µM | 0.419 | 0.263 | 0.202 | 0.372 | 0.427 | 0.89 | 0.602 | 0.816
3 | O=c1cc(N2CCOCC2)oc2c(-c3cccc4c3sc3ccccc34)cccc12 | 3.26 µM | 6.82 µM | 3.15 | 2.69 | 2.74 | 3.44 | 3.36 | 3.5 | 3.26 | 3.93 | 9.09 µM | 2.78 µM | 9.84 µM | > 10 µM | > 10 µM | > 10 µM | 0.447 | 0.0967 | 0.184 | 0.35 | 0.489 | 0.62 | 0.561 | 0.476

More lines, main results first:

Row | GI50, drug alone (786-O [10]) | GI50, drug alone (ACHN [12]) | SMILES | AUC of dose-response viability curve (TK-10 [1]) | AUC of dose-response viability curve (786-O [2]) | AUC of dose-response viability curve (CAKI-1 [3]) | AUC of dose-response viability curve (ACHN [4]) | AUC of dose-response viability curve (769-P [5]) | AUC of dose-response viability curve (A498 [6]) | AUC of dose-response viability curve (SN12C [7]) | AUC of dose-response viability curve (UO-31 [8]) | GI50, drug alone (TK-10 [9]) | GI50, drug alone (CAKI-1 [11]) | GI50, drug alone (769-P [13]) | GI50, drug alone (A498 [14]) | GI50, drug alone (SN12C [15]) | GI50, drug alone (UO-31 [16]) | minimum viability across doses (TK-10 [17]) | minimum viability across doses (786-O [18]) | minimum viability across doses (CAKI-1 [19]) | minimum viability across doses (ACHN [20]) | minimum viability across doses (769-P [21]) | minimum viability across doses (A498 [22]) | minimum viability across doses (SN12C [23]) | minimum viability across doses (UO-31 [24])
4 | 1.62 µM | 4.51 µM | NCC(=O)Nc1ccc(-n2nc(C(F)(F)F)cc2-c2ccc3c(ccc4ccccc43)c2)cc1 | 2.74 | 2.29 | 3.25 | 3.11 | 2.96 | 3.01 | 3.13 | 2.76 | 4.25 µM | 4.52 µM | 3.77 µM | 3.22 µM | 4.07 µM | 0.928 µM | 0.326 | 0.00641 | 0.0096 | 0.0447 | 0.0386 | 0.0189 | 0.00771 | 0.00932
5 | > 10 µM | > 10 µM | OCCn1cc(-c2cnc3nnn(Cc4ccc5ncccc5c4)c3n2)cn1 | 3.18 | 4 | 2.32 | 2.48 | 3.3 | 4.04 | 3.37 | 4.37 | > 10 µM | > 10 µM | > 10 µM | > 10 µM | > 10 µM | > 10 µM | 0.804 | 1.01 | 0.615 | 0.542 | 0.883 | 0.984 | 0.879 | 1.15
